Experimental data published in patent US12171821B2, “Toxoplasma gondii vaccine” (priority 2018, dated 2024).
Values joined by “and” are separate entries in the source; they are usually repeats but may differ in a detail not shown here. Equal values may be shown once. “Also recorded” adds a separate entry of the source.

Assays:
[1] = whole animal experiments (He et al., 2012); cited from earlier work
T. gondii [2] = assay: Oocyst counts in mouse feces by microscopy; format: in vivo, Toxoplasma gondii; conditions: mice, inhibitor every 12 hours for the 7 days of infection
Method: (§1) Delta-6-desaturase inhibition. SC 26196 (Cayman) was solubilized in DMSO and used at 20 μM in mouse organoid monolayers. For in vivo treatment, the inhibitor was solubilized in 0.5% m/v methylcellulose and the mice were given 50 mg/kg every 12 hours by oral gavage (He et al., 2012). 4-week old C57BL/6J female mice deleted in Z-DNA-binding protein (Pittman et al., 2016) were divided into four different groups: uninfected control, T. gondii-infected without fatty acid supplementation, T. gondii infected with linoleic acid supplementation, and T. gondii-infected with linoleic acid and SC 26196 inhibitor. Each mouse supplemented with linoleic acid received 10 μL of 99% linoleic acid oil (MilliporaSigma Cat #843483) suspended in 0.5% Methylcellulose per day by oral gavage. Mice were infected with 1000 brain cysts purified as described above by oral gavage and euthanized 7 days post infection. Sample size was at least 2 mice per group and the experiment was repeated 5 times. Alternatively, each mouse was infected with one mouse brain at least 2 months postinfection with at least 1000 cysts. Mice were treated with SC 26196 until day 5 postinfection. Feces were collected from days 5-14 and oocysts enumerated by microscopy.

T. gondii [3] = assay: Real-time PCR (SAG1) on gDNA of mouse fecal samples; format: in vivo, Toxoplasma gondii; conditions: mice fed linoleic acid, with or without SC26196
Method: as §1
Real-time PCR on fecal samples. […] A standard curve was generated using a dilution series of 101-105 parasites per well amplified using the SAG1 primer set described above, based on a gDNA sample with known parasite quantity. […]
[formula] […] The calculated copy numbers of each sample were normalized based on the ng of nucleic acid used as PCR template. […]
Statistical methods. […] The difference between the mean target gene copy numbers was analyzed by two-tailed unpaired t tests. […] The difference between the mean relative expression of each target gene was analyzed by two-tailed unpaired t tests.

murine organoids = assay: Monolayer formation of murine organoids with delta 6-desaturase inhibitor; format: cell-based, mouse; conditions: about 2 μM to 200 μM, medium with about 200 μM linoleic acid
[4] = system: T. gondii ME49 bradyzoites; assay: Real-time PCR on ileum cDNA of infected Z-DNA binding protein knock out mice; format: in vivo, Toxoplasma gondii; conditions: mice, linoleic acid and SC26196 50 mg/kg every 12 hours by oral gavage, seven days after infection
Method: as §1
(§2) Real-time PCR on ileum cDNA. Z-DNA binding protein deletion mice ice with and without delta-6-desaturase inhibitor treatment were euthanized 7 days post infection. The ileum of each mouse was removed and homogenized in 1 mL of TRIzol. Total RNA was isolated according to manufacturer's protocol (Invitrogen) and treated with amplification grade Dnase I. cDNA was generated using the Invitrogen SuperScript III First-Strand Synthesis kit with random hexamer primers. GRA11B and SAG1 were used as markers of sexual and asexual stages, respectively. The T. gondii housekeeping gene TUB1A was used to normalize target gene expression. Real-time quantitative PCR was performed using Bio-Rad iTaq Universal SYBR Green Supermix on 311 an Applied Biosystems StepOnePlus Real-Time PCR system. The efficiency of each primer set was calculated from the slope of a 1:10 dilution standard curve of tachyzoite gDNA, where E=10^(−1/slope). The Pfaffl method (Pfaffl, 2001), which accounts for differences in efficiencies, was then used to calculate the relative gene expression of GRA11B and SAG1 per sample, in triplicate. Only wells with one melt curve temperature were used, indicating a single product. Primer sequences were as follows:
Statistical methods. All real-time PCR fecal samples were run in triplicate technical replicates. The difference between the mean target gene copy numbers was analyzed by two-tailed unpaired t tests. The real-time PCR intestinal samples were run in triplicate from two biological replicates per group. The difference between the mean relative expression of each target gene was analyzed by two-tailed unpaired t tests.

[5] = system: T. gondii ME49 bradyzoites; assay: Merozoite markers GRA11B/BRP1, immunofluorescence, infected cat intestinal monolayers; format: cell-based, Toxoplasma gondii; conditions: 200 μM fatty acid, 5 days of infection
Method: FIGS. 6A-B. Quantification of merozoites in cat tissue culture. A) Cat intestinal organoids were disassociated by trypsin then grown as monolayers on glass slides. Slides were divided into three different groups: not supplemented with fatty acid, supplemented with 200 μM oleic acid or supplemented 200 μM linoleic acid. Monolayers were infected with T. gondii MEM bradyzoites purified from brains of chronic infected mice at a 1:10 MOI. Five days after infection, staining for GRA11B and BRP1 along with DAPI, allowed the percentage of vacuoles positive for GRA11B and BRP1out of the total vacuoles was determined. Total number of parasitophorous vacuoles were counted by positive DAPI staining and confirmed by morphology with DIC. At least 50 parasitophorous vacuoles were counted per replicate. Three biological replicates were counted and on average 35% of the total vacuoles were positive far both GRA11B and BRP1 in the linoleic acid supplemented monolayers. *p-value=0.0126 with N=3 by two-tailed unpaired t test. Straining for both BRP1 and GRA11B was used to ensure that merozoite stages were counted. […] BRP1 is a rhoptry protein that was initially found in bradyzoites; however, it is also expressed in merozoite. […]

[6] = system: T. gondii ME49 bradyzoites; assay: qPCR of SAG1, GRA11B, TUB1A on cDNA of infected cat intestinal monolayers; format: cell-based, Toxoplasma gondii; conditions: cat intestinal monolayers cDNA
Method: FIGS. 6A-B. Quantification of merozoites in cat tissue culture. A) Cat intestinal organoids were disassociated by trypsin then grown as monolayers on glass slides. Slides were divided into three different groups: not supplemented with fatty acid, supplemented with 200 μM oleic acid or supplemented 200 μM linoleic acid. Monolayers were infected with T. gondii MEM bradyzoites purified from brains of chronic infected mice at a 1:10 MOI. Five days after infection, staining for GRA11B and BRP1 along with DAPI, allowed the percentage of vacuoles positive for GRA11B and BRP1out of the total vacuoles was determined. Total number of parasitophorous vacuoles were counted by positive DAPI staining and confirmed by morphology with DIC. At least 50 parasitophorous vacuoles were counted per replicate. Three biological replicates were counted and on average 35% of the total vacuoles were positive far both GRA11B and BRP1 in the linoleic acid supplemented monolayers. *p-value=0.0126 with N=3 by two-tailed unpaired t test. Straining for both BRP1 and GRA11B was used to ensure that merozoite stages were counted. […] BRP1 is a rhoptry protein that was initially found in bradyzoites; however, it is also expressed in merozoite. B) Cat intestinal monolayers were grown as described in panel A, except monolayers were quenched by TRIzol 5 days post-infection, RNA was extracted, and cDNA was synthesized using an oligo (dT) primer to amplify mRNA, Expression of SAG1 and GRA11B were quantified by qPCR and the fold change calculated in comparison with uninfected cells. TUB1A was used to normalize gene expression across samples.
as §2, with “follows: […]” for “follows:”

[7] = system: T. gondii ME49 bradyzoites; assay: Gametes and intracellular oocyst walls (AO2, 3G4, PCR) in infected cat intestinal monolayers; format: cell-based, Toxoplasma gondii; conditions: cultured cat cells, 200 μM fatty acid, 7 days of infection
Method: FIGS. 7A-H. Identification of gametes and intracellular oocysts in cat tissue culture. Cat intestinal organoids were disassociated by trypsin then grown as monolayers on glass slides. […] After 7 days, monolayers were incubated with mouse anti-AO2 (panels A-C) or mouse monoclonal IgM 3G4 (panels E-G), The amiloride-sensitive amine oxidase, copper-containing protein 2 (AO2) is an enzyme exclusively expressed in macrogametes and early oocysts and has a possible role in oocyst wall biogenesis. […] 3G4 is a mouse monoclonal antibody produced by immunizing mice with purified oocyst walls, thus it is a marker of oocyst wall biogenesis. Only monolayers supplemented with linoleic acid (G) had positive 3G4 vacuoles. All panels are 20 μm square with a 5 μm white size bar in the lower right corner. D) Markers for macrogamete and microgamete expression were also evaluated by PCR. Cat intestinal monolayers were grown in 24-well plates until confluency and then infected with T. gondii bradyzoites in duplicate using the same conditions as above. 7 days post-infection, RNA was extracted with TRIzol and cDNA was synthesized using an oligo (dT) primer to only amplify mRNA. AO2 was again used as a marker for macrogametes and the expected PCR product is 218 bp. To assess microgamete presence, we selected the gene TgME49_306338, which is overexpressed in the gametes stage, corresponded to day 7 post-infection in cats and has 44% identity to a protein expressed in the flagella of the motile green algae Chlamydomonas reinhardtii. The expected PCR product for TgME49_306338 is 160 bp. TUB1A was used as an input control and results in a 172 bp product. NO RT corresponds to a cDNA synthesis reaction without the addition of reverse transcriptase (RI) as a control for genomic DNA contamination. Equivalent amounts of cDNA per sample were used as a template for each PCR reaction, and the products were separated on an acrylamide gel. […] H) The number of positive oocyst walls stained with 3G4 were quantified. […] The number of positive oocyst walls were counted in each slide and divided by the area of slide in cm^2.
Immunofluorescence. Intestinal organoid monolayers or mouse fecal samples were fixed in 3.7% formaldehyde in PBS for 20 minutes, permeabilized with 0.2% triton X-100 (Sigma) in PBS at room temperature for one hour and then blocked with 3% BSA in PBS at room temperature for one hour. Primary antibody was incubated at 4° C. overnight in 0.2% v/v Triton x-100 and 3% BSA in PBS (1:100 mouse anti-GRA11B, 1:100 rabbit anti-BRP1, 1:100 mouse anti-AO2, 1:50 monoclonal mouse anti-ZO1 (Santa Cruz) or 1:25 mouse 288 IgM anti-oocyst wall 3G4. Sporulated oocysts from mouse feces were dried onto slides, fixed and permeabilized with ice cold acetone for 30 minutes and incubated with 1:20 mouse 4B6 to the visualize the sporocyst. Slides were incubated one hour with the specific secondary antibody (1:500 goat anti-rabbit Alexa Fluor 488 and 1:500 goat anti-mouse Alexa Fluor 594) at room temperature for one hour and then washed 3 times with PBS. Cells nuclei were stained with 10 μM DAPI (Sigma). Slides were mounted in Vectashield antifade mounting medium (VectorLabs). Samples were imaged on Zeiss Axioplan III equipped with a triple-pass (DAPI/fluorescein isothiocyanate [FITC]/Texas Red) emission cube, differential interference contrast optics, and a monochromatic Axiocam camera operated by Zen software (Zeiss) and processed using ImageJ (Fiji packet).
PCR of cat intestinal monolayers. […]

[8] = biological replicates 1 and 2, wells 1-3

Row | Compound | anti-inflammatory effect [1] | oocysts produced (T. gondii [2]) | T. gondii genomic DNA in mouse fecal samples (qPCR, SAG1 primers) (T. gondii [3]) | monolayer formation (murine organoids) | expression of merozoite marker GRA11B, qPCR of ileum cDNA [4] | parasites undergoing sexual development / merozoite stage markers GRA11B and BRP1 (staining) [5] | GRA11B Ct mean ([6]; biological replicates 1 and 2) | SAG1 Ct mean ([6]; biological replicates 1 and 2) | GRA11B raw Ct values [6, 8] | SAG1 raw Ct values [6, 8] | number of positive oocyst walls stained with 3G4 [7]
1 | N#CC(CCCN1CCN(/N=C/c2cccnc2)CC1)(c1ccccc1)c1ccccc1 [SC26196] | effective as an anti-inflammatory agent | 1000-10,000 oocysts/gram dry feces | detectable only in mice treated with SC26196; also recorded: detected only in mice treated with SC26196 | did not inhibit monolayer formation | significantly up regulated only in the presence of SC26196 |  |  |  |  |  | 
2 | CCCCCCCC/C=C\CCCCCCCC(=O)O [oleic acid] |  |  |  |  |  | not | 32.53 and 31.82 | 20.83 and 19.56 | 32.44 and 31.77 (2×) and 32.73 and 31.91 and 32.43 | 20.87 and 19.66 and 20.88 and 19.54 and 20.75 and 19.46 | none
